In ChEMBL document CHEMBL1137173, “Synthesis of an unusual branched-chain sugar, 5-C-methyl-L-idopyranose for SAR studies of pyranmycins: implication for the future design of aminoglycoside antibiotics” (2004):
Converted amounts (≈) assume the structure as drawn.

What was measured:
[1] = test system: Ribosomal RNA A-site; assay: Binding affinity towards decoding region at A-site of 16s rRNA; format: nucleic-acid assay; parameters: unit not given here
[2] = test system: Staphylococcus aureus; assay: Minimum inhibitory concentration required against Staphylococcus aureus; format: functional
[3] = test system: Escherichia coli; assay: Minimum inhibitory concentration required against Escherichia coli; format: functional
[4] = Staphylococcus aureus, read-out: MIC
[5] = Escherichia coli, read-out: MIC

| Activity [1] | MIC [2] [µM] | MIC [3] [µM] | MIC [2, 4] [µM] | MIC [3, 5] [µM] | SMILES |
| --- | --- | --- | --- | --- | --- |
| -314 | – | – | – | – | C[C@@H]1O[C@@H](O[C@@H]2[C@H](O)[C@H](N)C[C@@H](N)[C@H]2O[C@H]2O[C@@H](CN)[C@@H](O)[C@H](O)[C@@H]2N)[C@@H](O)[C@@H](O)[C@@H]1O (stereo in doubt; form 2) |
| – | 13 | 19 | – | – | C[C@@H]1O[C@@H](O[C@@H]2[C@H](O)[C@H](N)C[C@@H](N)[C@H]2O[C@H]2O[C@@H](CN)[C@@H](O)[C@H](O)[C@@H]2N)[C@@H](O)[C@@H](O)[C@@H]1O.Cl.Cl.Cl.Cl (stereo in doubt; form 2) |
| – | – | 91 | 15 | – | C[C@@H]1O[C@@H](O[C@@H]2[C@H](O)[C@H](N)C[C@@H](N)[C@H]2O[C@H]2O[C@@H](CN)[C@@H](O)[C@H](O)[C@@H]2N)[C@@H](O)[C@@H](O)[C@@H]1O.Cl.Cl.Cl.Cl (stereo in doubt; form 1) |
| -320 | – | – | – | – | C[C@@H]1O[C@@H](O[C@@H]2[C@H](O)[C@H](N)C[C@@H](N)[C@H]2O[C@H]2O[C@@H](CN)[C@@H](O)[C@H](O)[C@@H]2N)[C@@H](O)[C@@H](O)[C@@H]1O (stereo in doubt; form 1) |

Further lines, the compound ahead of its results:

| SMILES | Activity [1] | MIC [2] [µM] | MIC [3] [µM] | MIC [2, 4] [µM] | MIC [3, 5] [µM] |
| --- | --- | --- | --- | --- | --- |
| C[C@]1(CO)O[C@@H](O[C@@H]2[C@H](O)[C@H](N)C[C@@H](N)[C@H]2O[C@H]2O[C@@H](CN)[C@@H](O)[C@H](O)[C@@H]2N)[C@@H](O)[C@@H](O)[C@@H]1O | -318 | – | – | 27 (≈ 13.5 µg/mL) | 87 (≈ 43.4 µg/mL) |
| NC[C@@H]1O[C@H](O[C@H]2[C@H](O[C@@H]3O[C@H](CO)[C@@H](O)[C@H](O)[C@@H]3O)[C@H](O)[C@H](N)C[C@H]2N)[C@@H](N)[C@@H](O)[C@@H]1O | -320 | – | – | 3 (≈ 1.45 µg/mL) | 11 (≈ 5.33 µg/mL) |
| NC[C@@H]1O[C@H](O[C@H]2[C@H](O[C@@H]3O[C@H](CN)[C@@H](O)[C@H](O)[C@@H]3O)[C@H](O)[C@H](N)C[C@H]2N)[C@@H](N)[C@@H](O)[C@@H]1O | -394 | – | – | 2 (≈ 0.967 µg/mL) | 9 (≈ 4.35 µg/mL) |
| NC[C@@H]1O[C@H](O[C@H]2[C@@H](O)[C@H](O[C@@H]3[C@@H](O)[C@H](N)C[C@H](N)[C@H]3O[C@H]3O[C@H](CN)[C@@H](O)[C@H](O)[C@H]3N)O[C@@H]2CO)[C@H](N)[C@@H](O)[C@@H]1O [FRAMYCETIN] | -474 | – | – | 3 (≈ 1.84 µg/mL) | 2 (≈ 1.23 µg/mL) |
| NC[C@@H]1O[C@H](O[C@H]2[C@H](O[C@@H]3OC(CO)(CO)[C@@H](O)[C@H](O)[C@@H]3O)[C@H](O)[C@H](N)C[C@H]2N)[C@@H](N)[C@@H](O)[C@@H]1O | -315 | – | – | 7 (≈ 3.6 µg/mL) | 22 (≈ 11.3 µg/mL) |
